Patent publication US20230024302A1, “2,3,5-TRISUBSTITUTED PYRAZOLO[1,5-A]PYRIMIDINE COMPOUNDS” (Arcus Biosciences, Inc., priority 2019, published 2023)
pIC50: −log10 of the molar value. Like-named read-outs stand apart in the source and are kept apart here.

Assays:
PI3Kγ = biological target: T1, PI3Kγ (Homo sapiens, UniProt P48736); experiment: PI3Kγ cellular assay in THP-1 cells (AKT pS473 AlphaLISA); type: cell-based
T1 construct: host or cells: THP-1
In short: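 Serum-starved THP-1 cells (1.8×10^5/well, serum-free DMEM) treated with compounds from 4 nM to 30 μM in 2% DMSO, then stimulated and lysed.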

PI3Kγ (p120γ) = biological target: T2, PI3Kγ (p120γ) (Homo sapiens, UniProt P48736); experiment: Inhibition of PI3K kinase activity (ADP Glo), PI3Kγ; details: read-out: biochemical potency (PI3Kγ IC50)
T2 construct: purchased Promega V1761
T2 sequence (P48736 whole entry): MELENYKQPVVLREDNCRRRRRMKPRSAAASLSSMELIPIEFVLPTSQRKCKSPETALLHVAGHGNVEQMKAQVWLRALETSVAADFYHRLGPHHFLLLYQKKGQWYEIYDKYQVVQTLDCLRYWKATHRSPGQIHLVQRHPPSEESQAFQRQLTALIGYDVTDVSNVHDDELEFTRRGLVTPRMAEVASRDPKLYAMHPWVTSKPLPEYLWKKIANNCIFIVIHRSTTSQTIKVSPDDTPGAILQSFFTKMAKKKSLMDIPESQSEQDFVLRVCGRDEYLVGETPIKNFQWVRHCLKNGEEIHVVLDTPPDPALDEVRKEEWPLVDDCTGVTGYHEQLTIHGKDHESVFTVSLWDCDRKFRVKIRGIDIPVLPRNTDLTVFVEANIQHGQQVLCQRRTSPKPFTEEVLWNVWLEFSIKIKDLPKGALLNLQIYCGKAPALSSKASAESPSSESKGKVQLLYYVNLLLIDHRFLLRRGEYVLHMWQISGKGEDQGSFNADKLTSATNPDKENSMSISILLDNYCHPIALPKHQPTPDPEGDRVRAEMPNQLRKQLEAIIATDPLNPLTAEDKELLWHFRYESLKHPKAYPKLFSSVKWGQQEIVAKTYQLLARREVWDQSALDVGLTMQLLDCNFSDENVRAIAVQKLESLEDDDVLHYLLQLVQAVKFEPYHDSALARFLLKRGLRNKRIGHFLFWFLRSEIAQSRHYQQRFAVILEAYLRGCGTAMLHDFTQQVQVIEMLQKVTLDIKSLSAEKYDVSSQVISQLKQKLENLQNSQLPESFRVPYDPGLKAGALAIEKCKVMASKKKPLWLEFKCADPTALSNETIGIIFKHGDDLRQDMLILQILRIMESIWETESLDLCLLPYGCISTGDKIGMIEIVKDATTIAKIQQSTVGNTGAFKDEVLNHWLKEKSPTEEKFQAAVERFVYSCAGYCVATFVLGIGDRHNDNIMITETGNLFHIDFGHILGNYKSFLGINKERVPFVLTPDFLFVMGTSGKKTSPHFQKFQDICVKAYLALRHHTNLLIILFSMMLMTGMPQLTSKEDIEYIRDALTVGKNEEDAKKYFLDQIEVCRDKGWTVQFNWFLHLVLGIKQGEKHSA
In short: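 Recombinant p120γ (8 nM, 2× stock) was preincubated with compound for 1 h at rt in HEPES pH 7.4, NaCl, MgCl2 and 0.05% BSA. Reaction was started with PIP2 (0.1 mg/ml, 2×) and ATP (50 μM, 2×) and ran 60 min at rt. ADP formed was read by ADP-Glo luminescence, and IC50 came from a 4-parameter fit.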

[1] = Table 6, rhMCP-1 stimulated AKT pS473, read-out: cellular potency (PI3Kγ IC50)
[2] = Table 7, rhMCP-1 stimulated AKT pS473, read-out: cellular potency (PI3Kγ IC50)

T1 sequence (P48736 whole entry): as above

Row | Structure (SMILES) | pIC50 (PI3Kγ; [1]) | pIC50 (PI3Kγ (p120γ); Table 6, p120γ) | pIC50 (PI3Kγ; [2]) | pIC50 (PI3Kγ (p120γ); Table 7, p120γ)
1 | C[C@@H](C1CC1)N1Cc2cc(-c3ccn4nc(N)c(C(=O)Nc5cccc(C(C)(C)O)c5)c4n3)cc(OC(F)(F)F)c2C1=O [Example 420] | 6.00 to 7.00 | > 7.00 | – | –
2 | C[C@@H](C1CC1)N1Cc2cc(-c3ccn4nc(N)c(C(=O)N[C@H]5CCCNC5)c4n3)cc(OC(F)(F)F)c2C1=O [Example 421] | 6.00 to 7.00 | > 7.00 | – | –
3 | C[C@@H](C1CC1)N1Cc2cc(-c3ccn4nc(N)c(C(=O)Nc5cnccc5N)c4n3)cc(OC(F)(F)F)c2C1=O [Example 422] | 6.00 to 7.00 | > 7.00 | – | –
4 | COc1ccc(NC(=O)c2c(N)nn3ccc(-c4cc5c(c(OC(F)(F)F)c4)C(=O)N([C@@H](C)C4CC4)C5)nc23)cn1 [Example 423] | 6.00 to 7.00 | > 7.00 | – | –
5 | C[C@@H](C1CC1)N1Cc2cc(-c3ccn4nc(N)c(C(=O)N[C@H]5CNC[C@@H]5O)c4n3)cc(OC(F)(F)F)c2C1=O [Example 424] | < 6.00 | > 7.00 | – | –
6 | C[C@@H](C1CC1)N1Cc2cc(-c3ccn4nc(N)c(C(=O)Nc5ccccc5C(C)(C)O)c4n3)cc(OC(F)(F)F)c2C1=O [Example 425] | < 6.00 | > 7.00 | – | –
7 | C[C@@H](C1CC1)N1Cc2cc(-c3ccn4nc(N)c(C(=O)N[C@H]5CCC[C@@H](N)C5)c4n3)cc(OC(F)(F)F)c2C1=O [Example 426] | 6.00 to 7.00 | > 7.00 | – | –
8 | C[C@@H](C1CC1)N1Cc2cc(-c3ccn4nc(N)c(C(=O)Nc5ccccc5)c4n3)cc(OC(F)(F)F)c2C1=O [Example 427] | < 6.00 | > 7.00 | – | –
9 | C[C@@H](C1CC1)N1Cc2cc(-c3ccn4nc(N)c(C(=O)Nc5ccnc(C(F)(F)F)c5)c4n3)cc(OC(F)(F)F)c2C1=O [Example 428] | < 6.00 | > 7.00 | – | –
10 | Cc1nn(C)cc1NC(=O)c1c(N)nn2ccc(-c3cc4c(c(OC(F)F)c3)C(=O)N([C@@H](C)C3CC3)C4)nc12 [Example 429] | > 7.00 | > 7.00 | – | –
11 | C[C@@H](C1CC1)N1Cc2cc(-c3ccn4nc(N)c(C(=O)N[C@H]5C[C@](C)(O)C5)c4n3)cc(OC(F)F)c2C1=O [Example 430] | > 7.00 | > 7.00 | – | –
12 | C[C@H](N1Cc2cc(-c3ccn4nc(N)c(C(=O)NC5CC5)c4n3)cc(N3CC[C@@H](O)C3)c2C1=O)C(F)(F)F [Example 431] | 6.00 to 7.00 | > 7.00 | – | –
13 | C[C@@H](C1CC1)N1Cc2cc(-c3ccn4nc(N)c(C(=O)N[C@H]5C[C@@](C)(O)C5)c4n3)cc(N3CC[C@@H](O)C3)c2C1=O [Example 432] | 6.00 to 7.00 | > 7.00 | – | –
14 | C[C@@H](C1CC1)N1Cc2cc(-c3ccn4nc(N)c(C(=O)NC5CC5)c4n3)cc(N3CC(O)C3)c2C1=O [Example 433] | 6.00 to 7.00 | > 7.00 | – | –
15 | C[C@H](N1Cc2cc(-c3ccn4nc(N)c(C(=O)N[C@@H](CO)C5CC5)c4n3)cc(N3CC[C@@H](O)C3)c2C1=O)C(F)(F)F [Example 434] | 6.00 to 7.00 | > 7.00 | – | –
16 | C[C@H](CO)NC(=O)c1c(N)nn2ccc(-c3cc4c(c(N5CC(F)(F)C5)c3)C(=O)N([C@@H](C)C3CC3)C4)nc12 [Example 435] | 6.00 to 7.00 | > 7.00 | – | –
17 | C[C@@H](C1CC1)N1Cc2cc(-c3ccn4nc(N)c(C(=O)NC5CC5)c4n3)cc(N3CC(F)(F)C3)c2C1=O [Example 436] | 6.00 to 7.00 | > 7.00 | – | –
18 | C[C@@H](C1CC1)N1Cc2cc(-c3ccn4nc(N)c(C(=O)N[C@H]5CC[C@@](C)(O)CC5)c4n3)cc(N3CCN(C)CC3)c2C1=O [Example 437] | 6.00 to 7.00 | > 7.00 | – | –

Row | Structure (SMILES) | pIC50 (PI3Kγ; [1]) | pIC50 (PI3Kγ (p120γ); Table 6, p120γ) | pIC50 (PI3Kγ; [2]) | pIC50 (PI3Kγ (p120γ); Table 7, p120γ)
19 | C[C@@H](C1CC1)N1Cc2cc(-c3ccn4nc(N)c(C(=O)Nc5cccnc5)c4n3)cc(N3CC[C@@H](O)C3)c2C1=O [Example 438] | 6.00 to 7.00 | > 7.00 | – | –
20 | C[C@H](CO)NC(=O)c1c(N)nn2ccc(-c3cc4c(c(OC5CC(F)(F)C5)c3)C(=O)N([C@@H](C)C3CC3)C4)nc12 [Example 439] | 6.00 to 7.00 | > 7.00 | – | –
21 | C[C@H](CO)NC(=O)c1c(N)nn2ccc(-c3cc4c(c(O[C@H](C)C(F)(F)F)c3)C(=O)N([C@@H](C)C3CC3)C4)nc12 [Example 440] | 6.00 to 7.00 | > 7.00 | – | –
22 | C[C@@H](C1CC1)N1Cc2cc(-c3ccn4nc(N)c(C(=O)N[C@H]5CCNC5=O)c4n3)cc(O[C@@H]3CCOC3)c2C1=O [Example 441] | < 6.00 | > 7.00 | – | –
23 | C[C@@H](C1CC1)N1Cc2cc(-c3ccn4nc(N)c(C(=O)NC5CC5)c4n3)cc(O[C@H](C)C(F)(F)F)c2C1=O [Example 442] | 6.00 to 7.00 | > 7.00 | – | –
24 | C[C@@H](C1CC1)N1Cc2cc(-c3ccn4nc(N)c(C(=O)N[C@@H]5CNC(=O)C5)c4n3)cc(O[C@@H]3CCOC3)c2C1=O [Example 443] | < 6.00 | > 7.00 | – | –
25 | C[C@@H](C1CC1)N1Cc2cc(-c3ccn4nc(N)c(C(=O)N[C@H]5C[C@](C)(O)C5)c4n3)cc(S(C)(=O)=O)c2C1=O [Example 444] | 6.00 to 7.00 | > 7.00 | – | –
26 | C[C@@H](C1CC1)N1Cc2cc(-c3ccn4nc(N)c(C(=O)N[C@H]5C[C@H](O)C5)c4n3)cc(S(C)(=O)=O)c2C1=O [Example 445] | 6.00 to 7.00 | > 7.00 | – | –
27 | CC(C)NS(=O)(=O)c1cc(-c2ccn3nc(N)c(C(=O)NC4CC4)c3n2)cc2c1C(=O)N([C@@H](C)C1CC1)C2 [Example 446] | 6.00 to 7.00 | > 7.00 | – | –
28 | C[C@@H](C1CC1)N1Cc2cc(-c3ccn4nc(N)c(C(=O)NC5CC5)c4n3)cc(S(C)(=N)=O)c2C1=O (stereo partly drawn) [Example 447] | 6.00 to 7.00 | > 7.00 | – | –
29 | C[C@@H](C1CC1)N1Cc2cc(-c3ccn4nc(N)c(C(=O)N[C@H]5CC[C@@](C)(O)CC5)c4n3)cc(S(C)(=N)=O)c2C1=O (stereo partly drawn) [Example 448] | 6.00 to 7.00 | > 7.00 | – | –
30 | CC[C@H](N1Cc2cc(-c3ccn4nc(N)c(C(=O)NC5CC5)c4n3)cc(Cl)c2C1=O)C(F)(F)F [Example 449] | 6.00 to 7.00 | > 7.00 | – | –
31 | CCc1cc(-c2ccn3nc(N)c(C(=O)NC4CC4)c3n2)cc2c1C(=O)N([C@@H](C)C1CC1)C2 [Example 450] | 6.00 to 7.00 | > 7.00 | – | –
32 | C[C@@H](C1CC1)N1Cc2cc(-c3ccn4nc(N)c(C(=O)NC5CC5)c4n3)cc(C#N)c2C1=O [Example 451] | 6.00 to 7.00 | > 7.00 | – | –
33 | C[C@@H](C1CC1)N1Cc2cc(-c3ccn4nc(N)c(C(=O)Nc5cccnc5)c4n3)cc(C3CC3)c2C1=O [Example 452] | 6.00 to 7.00 | > 7.00 | – | –
34 | C[C@@H](C1CC1)N1Cc2cc(-c3ccn4nc(N)c(C(=O)N[C@@H](CO)C5CC5)c4n3)cc(C(C)(C)O)c2C1=O [Example 453] | 6.00 to 7.00 | > 7.00 | – | –
35 | C[C@@H](C1CC1)N1Cc2cc(-c3ccn4nc(N)c(C(=O)N[C@@H](CO)C5CC5)c4n3)cnc2C1=O [Example 454] | – | – | < 6.00 | > 7.00
36 | C[C@@H](C1CC1)N1Cc2cc(-c3ccn4nc(N)c(C(=O)NC5CC5)c4n3)cnc2C1=O [Example 455] | – | – | 6.00 to 7.00 | > 7.00
